Results on 27 compounds are retold here after patent publication US8685963B2, “Compounds that inhibit NFκB and BACE1 activity” (The Trustees of Columbia University in the city of New York, priority 2008, dated 2014).

One test has as its target T1, BACE1 (Homo sapiens, UniProt P56817).
T1 construct: GFP; expressed in transfected cells; host or cells: SY5Y cells (SY5Y-BACEGFP-SEAPAPPwt), stably transfected
As to the kind of experiment: cell-based BACE1 assay (sAPPβ modified ELISA) in SY5Y-BACEGFP-SEAPAPPwt cells. The settings on record: for IC50: 8-point dose-response (30-0.01 μM). How it is done:
FIG. 8 depicts a sAPPβ assay utilized to identify inhibitors of BACE1. The assay utilizes SY5Y cells stably overexpressing BACE-GFP and SEAP-APPwt. Cells are incubated with a candidate compound for 6 hours prior to harvesting media. BACE1-mediated cleavage of APP results in the release of sAPPβ into the media. α-secretase, a competing enzyme that is non-amyloidogenic, also cleaves APP to release […]. Using an sAPPβ-specific antibody (sβwt), SEAP-sAPPβ is specifically captured in a modified ELISA assay. Detection is achieved by addition of the fluorescent alkaline phosphatase substrate, 4-methylumbelliferyl phosphate (4-MUP).
FIG. 10A-B depicts SAR studies of N-(quinolin-8-yl)benzenesulfonamides. 28 full and partial hits, shown in (A) for compounds 1-26 and (B) for compounds 27 and 28, from the targeted screen of N-(quinolin-8-yl)benzenesulfonamides were characterized in SY5Y-BACEGFP-SEAPAPPwt cells using the cell-based BACE1 assay. All compounds were tested at 8 concentrations (30, 10, 3, 1, 0.3, 0.1, 0.03, and 0.01 μM), and data points were analyzed with Origin software and fitted using a logistic model for IC50 determination.
A cell-based modified ELISA assay for measuring sAPPβ, the secreted ectodomain of β-amyloid precursor protein (APP) following […] (BACE1) cleavage, was used to identify a class of compounds that interfered with the first step of sAPPβ generation. This assay has been described in International Application PCT/US2007/015938 (Published as International Publication No. WO 08/008,463), which is herein incorporated in its entirety for all purposes.
The SY5Y-BACEGFP-SEAPAPPwt cell based assay was developed to discover novel small molecule modulators of BACE1 activity. SY5Y cells were stably transfected with GFP-tagged BACE1 (BACE-GFP) and secreted alkaline phosphatase (SEAP)-tagged wildtype APP (SEAP-APPwt). BACE1 cleavage of SEAP-APPwt results in secretion into the media of SEAP-tagged sAPPβ, which is collected and specifically captured using an sAPPβ cleavage site-specific antibody (sβwt). After washing, the fluorescent alkaline phosphatase substrate 4-methylumbelliferyl phosphate (4-MUP) is used to detect the captured SEAP-sAPPβ (FIG. 8).
176 compounds were tested in the primary screen (FIG. 9). Briefly, each compound (10 mM stock in DMSO) was diluted 1:25 in DMSO and loaded onto 96-well plates to generate a 400 μM stock plate. 1 μl of each compound was then diluted 1:200 with cell culture media (0.5% DMSO concentration) in two separate 96-well plates for a final screening concentration of 2 μM. 150 μl of media containing compound was then transferred onto SY5Y-BACEGFP-SEAPAPPwt cells in 96-well format, and the BACE1 assay was performed as described previously. The primary screen was conducted in duplicate. A parallel screen was conducted at 10 μM concentration, also in duplicate. […] Percent inhibition of the fluorescence signal was calculated as 100×[DMSO control−compound]/DMSO control The majority of data points were clustered between −25% and 25% inhibition of sAPPβ fluorescence signal (FIG. 9A). The Z′ factors for all 4 96-well plates used in the primary screen were above 0.7 (data not shown). The threshold for hit selection was set at 3 standard deviations, or 59.76% inhibition, yielding 6 small molecule hits and a hit rate of 3.41% (FIG. 9B).
28 full and partial hits were characterized in 8-point dose-response experiments for IC50 determination in SY5Y-BACEGFP-SEAPAPPwt cells (FIG. 10).
(In general: An ELISA detects its analyte on a solid surface through an enzyme-linked reagent.)

The next test deals with Aβ40. As to the kind of experiment: Aβ40 / sAPPβ levels in Lenti-APPsw infected primary cortical neurons. It counts as cell-based, mouse. How it is done: FIG. 11A-B depicts Lentiviral-mediated transduction of APPsw in primary neurons. Primary cortical neurons were harvested from wild-type P0 mice and cultured according to established protocols. Lentivirus harboring human Swedish mutant APP (Lenti-APPsw) was packaged using ViraPower Lentiviral Packaging mix (Invitrogen) according to the manufacturer's protocol. DIV-14 neurons were incubated for 24 hours with primary culture media containing the indicated volume (in μl) of virus (LV-1 and LV-2 denote 2 separate batches of virus, 0 denotes no virus was used). After infection, neurons were incubated for 72 hours with primary culture media. Media was collected for Aβ40 ELISA (Bio Source), and cell lysates were probed with APPCT antibody to visualize transduced full-length APP. (A) Bar graph depicting results; (B) Assay results.
FIG. 13A-B depicts the effect of CU-264 on Aβ expressing primary cortical neuron cultures from wild-type mice transformed with lentivirus harboring APPsw. […] At 10 μm, CU-264 increased Aβ levels. (A) Bar graph depicting results; (B) Assay results.
The previously described hit was further analyzed in physiologically relevant systems, e.g. primary neurons and Alzheimer's model mice. Two complementary neuronal cell systems were employed to test the effects of candidate compounds on various aspects of APP processing: cultured mouse cortical neurons (postnatal day 0) infected with recombinant lentivirus carrying human APPsw (Lenti-APPsw; FIG. 11); and cultured cortical neurons prepared from Tg2576 mice (carrying human APPsw transgene under the control of the PrP promoter). Lenti-APPsw infected cortical neurons can be prepared in a relatively large scale, but suffer from variability in lentiviral infection efficiency, resulting in variable levels of APP expression. In contrast, cortical neurons derived from Tg2576 provide constant APP expression. However, neuronal yield is generally much lower, since only half the pups will contain the transgene when heterozygote crossbreeds were conducted. Therefore, Initial characterization experiments were performed using cortical neurons infected with Lenti-APPsw.
Lenti-APPsw infected primary cortical neurons were used for the initial round of physiological experiments. Primary cortical neurons were harvested from wild-type P0 pups using established protocols.
The Lenti-APPsw vector was co-transfected into HEK293 T cells with ViraPower packaging mix (Invitrogen) to generate the lentivirus. Lentiviral-mediated transduction of APPsw in primary neurons was performed by adding neuron primary culture media containing the lentiviral particles to wild-type DIV-14 primary neurons (FIG. 11). After 24 hours, neurons were incubated with media for 72 hours prior to collecting for Aβ40 measurement. Two batches of virus (LV-1 and LV-2) were tested, showing that there is batch-to-batch variation in the viral titer.
Using this experimental paradigm, CU-264 was tested at 10 and 2 μM concentrations to examine the sAPPβ- and Aβ-lowering activity of the compound. The protocol was modified slightly to allow for 24-hour compound treatment. DIV-14 wild-type primary neurons (FIG. 12) cultured on 6-well plates were incubated for 24 hours with primary culture media containing lentiviral particles. After infection, fresh media was mixed in a 1:1 ratio with conditioned media collected prior to lentiviral infection, and applied to the cells for 48 hours to allow for APP expression. […]

SMILES strings stand for the structures. “Also recorded” adds a separate entry of the source.

By IC50 is commonly meant the concentration needed to halve the response being measured. Higher therefore signals weaker potency.

T1 sequence (P56817 46-501): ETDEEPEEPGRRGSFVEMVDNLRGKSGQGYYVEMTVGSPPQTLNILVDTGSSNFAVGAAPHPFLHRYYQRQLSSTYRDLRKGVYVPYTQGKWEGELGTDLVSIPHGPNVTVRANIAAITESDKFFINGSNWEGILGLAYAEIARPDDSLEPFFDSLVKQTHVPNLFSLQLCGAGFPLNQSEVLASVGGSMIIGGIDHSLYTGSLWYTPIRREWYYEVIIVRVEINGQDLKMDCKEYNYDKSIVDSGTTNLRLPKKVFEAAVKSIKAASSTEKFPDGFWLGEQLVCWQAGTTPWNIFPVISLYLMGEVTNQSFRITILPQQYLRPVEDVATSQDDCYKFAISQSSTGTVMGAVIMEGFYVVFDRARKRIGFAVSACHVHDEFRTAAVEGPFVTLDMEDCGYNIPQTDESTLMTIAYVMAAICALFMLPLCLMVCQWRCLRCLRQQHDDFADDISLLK

`O=[N+]([O-])c1ccccc1S(=O)(=O)Nc1cccc2cccnc12` [CU-153] gave an IC50 at BACE1 of 1.58 µM. On the same count and under the same terms, the figure for `COc1ccc(S(=O)(=O)Nc2cccc3cccnc23)c([N+](=O)[O-])c1` [CU-261] is 1.92 µM. At BACE1, `O=S(=O)(Nc1cccc2cccnc12)c1ccc2ccccc2c1` [CU-155] showed an IC50 of 2.2 µM. With `Cc1ccc(S(=O)(=O)Nc2cc(Br)cc3cccnc23)cc1` [CU-167], the IC50 on BACE1 stood at 1.09 µM. `COc1ccc(S(=O)(=O)Nc2cccc3cccnc23)cc1` [CU-151] showed an IC50 on BACE1 of 5.92 µM.

With `Nc1cc(C(F)(F)F)ccc1S(=O)(=O)Nc1cccc2cccnc12` [CU-264], on BACE1, the “potency for sAPPβ reduction (in words)” value is reported as “most potent analog; also recorded: sub-micromolar; also recorded: most potent compound” and the IC50 came to 0.53 µM. In the test with Aβ40, the “Aβ40 levels in more physiological assay” value is listed as “raising” and the “sAPPβ levels in more physiological assay” value is “raising”. In addition, the “Aβ40 levels in primary neurons” value with Aβ40 (2 μM CU-264, 24-hour treatment) is recorded as “does not reduce”. For the same compound, the “Aβ levels in primary neurons” value with Aβ40 (10 μM, 24-hour treatment) is given as “increased”. The “Aβ40 in primary neurons” value in the test on Aβ40 (tested at 10 and 2 μM, 24-hour treatment) was “did not reduce”. The compound `O=S(=O)(Nc1cc(Br)cc2cccnc12)c1cccc2cccnc12` [CU-168] displayed an IC50 on BACE1 of 17.2 µM. Regarding `O=S1(=O)Nc2c(ccc3cccnc23)-c2cc(C(F)(F)F)ccc21` [CU-262], at BACE1, the “potency for sAPPβ reduction (in words)” value is “sub-micromolar” and half-maximal inhibition (IC50) required 0.82 µM. For the compound `O=S(=O)(Nc1cccc2cccnc12)c1cccc2cccnc12` [CU-156], at BACE1, the IC50 came out at 4.23 µM.

On BACE1, `Cc1ccc2ccc3c(c2n1)NS(=O)(=O)c1ccc(C(F)(F)F)cc1-3` [CU-282] returned an IC50 of 1.11 µM. Still for that read-out and setting: the figure for `O=S(=O)(Nc1cccc2cccnc12)c1cccs1` [CU-150] is 8.03 µM. Regarding `Cc1ccc2cccc(NS(=O)(=O)c3ccc(C(F)(F)F)cc3N)c2n1` [CU-281], the IC50 against BACE1 amounted to 3.28 µM. The same measure, in the same setting: with `COc1cc(NS(=O)(=O)c2cccc3ccccc23)c2ncccc2c1` [CU-295] the figure was 3.63 µM; with `Cc1ccc(S(=O)(=O)Nc2cccc3ccc(C)nc23)cc1` [CU-225], 3.79 µM. On the same count and under the same terms, the figure for `O=S(=O)(Nc1cc(Br)cc2cccnc12)c1ccccc1` [CU-166] is 13.4 µM. Still for that read-out and setting: with `COc1cc(NS(=O)(=O)c2ccc3ccccc3c2)c2ncccc2c1` [CU-294] the figure was 3.75 µM.

Take `COc1cc(NS(=O)(=O)c2ccccc2[N+](=O)[O-])c2ncccc2c1` [CU-268]: at BACE1, it took 8.11 µM to reach half-maximal inhibition (IC50). As to `O=S(=O)(Nc1cccc2cccnc12)c1cccc2ccccc12` [CU-131], at BACE1, the IC50 worked out at 6.46 µM.

For the compound `COc1ccc(S(=O)(=O)Nc2cccc3cccnc23)c(N)c1` [CU-271], it took 2.74 µM to reach half-maximal inhibition on BACE1 (IC50). On the same count and under the same terms, with `COc1ccc(S(=O)(=O)Nc2cccc3ccc(C)nc23)c(N)c1` [CU-278] the figure was 11.5 µM; with `O=S(=O)(Nc1cc(Br)cc2cccnc12)c1cccc2ccccc12` [CU-138], 9.51 µM; with `O=[N+]([O-])c1ccc(S(=O)(=O)Nc2cccc3cccnc23)cc1` [CU-152], 4.63 µM. The same measure, in the same setting: the figure for `O=[N+]([O-])c1cc(C(F)(F)F)ccc1S(=O)(=O)Nc1cccc2cccnc12` [CU-265] is 2.95 µM; for `Cc1ccc2cccc(NS(=O)(=O)c3ccc(C(F)(F)F)cc3[N+](=O)[O-])c2n1` [CU-280] it is 5.51 µM. The compound `Cc1ccc2cccc(NS(=O)(=O)c3ccccc3N)c2n1` [CU-274] came in with an IC50 at BACE1 of 11.1 µM. The same measure, in the same setting: the figure for `Nc1ccccc1S(=O)(=O)Nc1cccc2cccnc12` [CU-242] is 3.82 µM. Regarding `Cc1ccc2cccc(NS(=O)(=O)c3ccccc3[N+](=O)[O-])c2n1` [CU-273], inhibition against BACE1 was half-maximal at 12.4 µM (IC50).
